The values below come from patent US20230338363A1, “COMBINATION CHEMO-IMMUNOTHERAPY FOR PANCREATIC CANCER USING THE IMMUNOGENIC EFFECTS OF AN IRINOTECAN SILICASOME NANOCARRIER PLUS ANTI-PD-1” (The Regents of the University of California, priority 2020, published 2023).

Assay [1] deals with KPC cells. Nature of the assay: ER stress: CHOP and cleaved caspase-3 western blotting, total ROS, intracellular Ca2+ flux. It counts as cell-based, mouse. The conditions noted are these: 24 h. Here is the method:
Intracellular ROS production was determined by a fluorescence-based ROS Kit (Abcam, ab186027) in KPC cells. This assay measures total ROS species according to vendor’s instructions. This assay is frequently used in cell biology to show the contribution of ROS in the context of ER stress and autophagy^3. Briefly, KPC cells were treated with IRIN (300 µM), OX (500 µM) or TUN (10 µM) for 24 h. Images were captured using a fluorescence microscope. Signal intensity was quantified by Image J software. At least three representative images were analyzed for each treatment. Data represents mean ± SD, n=3. *p<0.05, ***p<0.001, compared to PBS group (1-way ANOVA followed by a Tukey’s test). Bar is 50 µm.
Intracellular Ca^2+ flux was assessed by a Fluo 4 AM assay in KPC cells. The cells were treated with IRIN (300 µM), OX (500 µM) or TUN (10 µM) for 24 h. Images were captured using a fluorescence microscope, followed by data analysis using the Image J software. At least three representative images were analyzed for each treatment. Data represents mean ± SD, n=3. **p<0.01, ***p<0.001, compared to PBS group (1-way ANOVA followed by a Tukey’s test). Bar is 50 µm.
KPC cells were treated with IRIN silicasome at drug dose of 75 µM and 300 µM for 24 hours. PBS and empty silicasome (that is equivalent to drug dose of 300 µM) were included as control. Ca^2+ efflux (panel A) and total ROS (panel B) measurements were performed similar to FIGS. 14 and 15. Data represents mean ± SD, n=3. *p<0.05, **p<0.001, n.s., not significant (1-way ANOVA followed by a Tukey’s test). Panel C) In a separate experiment, KPC cells were seeded in to a 6-well plate, followed by the treatment using silicasome w/wo IRIN (300 µM) for 48 hours. ER marker, CHOP protein, was assayed by western blotting similar to FIG. 2, panel A
Western blotting was also used to detect the ER stress marker, CHOP, and Cleaved Caspase-3 (CC-3). In this case, KPC cells were treated with IRIN at the indicated concentrations (75- 600 µM) for 24 h. In a separate experiment, KPC cells were treated with IRIN (300 µM) and tunicamycin (10 µM) for 4 h. Primary antibodies were purchased from Cell Signaling Technology: β-actin (#3700), vinculin (#13901), CHOP (#2895), and Cleaved Caspase-3 (#9664).
(In general: A western blot detects proteins with antibodies after separation by electrophoresis.)

The test system of a further assay is PANC-1 cells. The assay is described as follows: Confirmative cellular studies (alkalization, autophagy inhibition, PD-L1 induction). To be noted: equivalent drug concentration 300 µM, 24 hrs. It counts as cell-based, human. Here is the method:
To confirm the effect of IRIN, another PDAC cell line, i.e. PANC-1 cells, were used to study IRIN induced alkalization effect (panel A), autophagy inhibition (panel B) and PD-L1 induction (panel C). The treatments included free IRIN, IRIN silicasome and empty silicasome at equivalent drug concentration of 300 µM for 24 hrs. PBS served as a negative control. Bars: 10 µm. Signal intensity was quantified by Image J. At least three representative images were analyzed for each treatment. Data represents mean ± SD, n = 3. *p<0.05, **p<0.01, ***p<0.001 (1-way ANOVA followed by a Tukey’s test). […] No significant effect was observed when empty silicasome was tested.

The test system of assay [2] is KPC cells. Nature of the assay: Autophagy (LC3B, p62) and PD-L1 expression by IF staining and immunoblotting. Format: cell-based, mouse. Here is the method: KPC cells were seeded in the µ-Slide 8 well. After cell attachment, the cells were treated by IRIN at 300 µM for 24 h. Control treatments included exposure to PBS, chloroquine (32 µM), rapamycin (100 nM) and IFN-γ (10 ng/ml). Before IF staining, the cells were washed with PBS and fixed with 4% paraformaldehyde at RT for 15 minutes. Cells were treated in 1% BSA (blocking reagent) plus 0.2% triton-X100 in PBS for 30 minutes. Subsequently, the cells were incubated with primary antibody that recognizes LC3B (Cell Signaling #2775, 1:200) or p62/SQSTM1 (Cell Signaling #23214, 1:800) in 1% BSA containing PBS solution at 4° C. overnight. The sample was washed twice in PBS and further stained using an Alexa Fluor® 488 conjugated goat anti-rabbit secondary antibody (Thermo Fisher, A-11008, 1:1000) and 5 µg/mL Hoechst 33342 dye for 1 h. Cell surface staining for PD-L1 assessment was carried out in fixed (4% paraformaldehyde) cells, using a staining process similar to the above protocol. Primary PD-L1 antibody (Abcam, ab213480, 1: 500) and Alexa Fluor® 594 conjugated goat anti-rabbit secondary antibody (Thermo Fisher, A-11012, 1:1000) were used. The cells were visualized using a Leica SP8-MD confocal microscope under the 100x objective lens.
To confirm the confocal staining results for LC3B, p62 and PD-L1, western blotting experiments were performed in KPC cells exposed to IRIN (300 µM) or OX (500 µM) for 24 hr. Another experiment also looked at the dose-dependent effect of IRIN at concentrations of 75, 150, 300 and 600 µM for 24 h. Briefly, ~2×10^5 KPC cells per well were seeded in 6 well-plates. After drug exposure, KPC cells were harvested and treated with cold RIPA lysis buffer (Cell Signaling # 9806S), supplemented with a cocktail of protease and phosphatase inhibitors (Cell Signaling #5872) and incubated on ice for 30 mins. After centrifugation of the lysates at 12,000 rpm for 10 min, protein concentration was quantified by a Bradford assay (Biorad). Equal amounts of protein in the supernatants were loaded onto a 10-20% Tris-glycine SDS-PAGE gel (Invitrogen, Grand Island, NY). The proteins were subsequently transferred to a PVDF membrane. The membrane was blocked with 5% non-fat dry milk/TBST, before incubation with primary and HRP-conjugated secondary antibodies. The primary antibodies included: LC3B (Cell Signaling #2775), p62/SQSTM1 (Cell Signaling #5114), NF-κB p65 (Cell Signaling #8242), Phospho-NF-xB p65 (Cell Signaling #3033) and PD-L1 (Abcam, ab213480). The blots were developed by soaking in ECL substrate (Thermo Fisher Scientific). Densitometric analysis of each protein band on the film was quantified by ImageJ software and normalized to the intensity of a corresponding housekeeping protein.
The of the IRIN silicasome on lysosomal alkalization was performed at drug concentrations of 75 µM and 300 µM in KPC cells. Empty silicasomes (in which a 500 µg/mL particle dose is representative of an encapsulated IRIN dose of 300 µM) was included as control. The assessment of LC3B, p62 and PD-L1 immunoblotting and IF staining were performed in KPC cells during treatment with the IRIN silicasome or empty silicasomes, as described for the free drug.

Structures can show the parent of a compound that is named as a salt.

As for `CCc1c2c(nc3ccc(OC(=O)N4CCC(N5CCCCC5)CC4)cc13)-c1cc3c(c(=O)n1C2)COC(=O)[C@]3(O)CC` [IRIN, Irinotecan hydrochloride trihydrate], in the assay with KPC cells [1] (IRIN 300 µM), the “intracellular Ca2+ release (Fluo-4 AM assay)” value was “response profile similar to ROS production” and the “total ROS production” value is listed as “robust generation ROS production”. Moreover, in the assay on KPC cells [1] (IRIN 75-600 µM), the “CHOP expression (immunoblotting)” value was “sizable and dose-dependent increase in CHOP expression”; the “cleaved caspase-3 (CC-3) expression” value is “increased expression of cleaved caspase-3”. Further, the “lysosomal pH, LC-3B generation and PD-L1 expression” value in the assay on PANC-1 cells is “capable of neutralizing lysosomal pH, triggered LC-3B generation and increase PD-L1 expression”. In the assay with KPC cells [2] (24 h, IRIN 300 µM, CQ 32 µM, RAP 100 nM), the “IF staining of LC3B and p62/SQSTM1 complexes” value is given as “contemporaneous appearance of fluorescent LC3B puncta as well as p62 protein complexes”. In addition, in the assay on KPC cells [2] (IRIN 300 µM or OX 500 µM, 24 h), the PD-L1 expression entry is given as “robust cell surface expression of PD-L1”; the “autophagy flux (Western blotting of LC3 and p62)” value was “inhibited autophagy flux”. In addition, the “phosphorylation of p65 NF-κB subunit” value in the assay on KPC cells [2] (IRIN 300 µM, 24 hrs) is reported as “induce the phosphorylation of the p65 (p-p65) subunit of NF-κB”. The “ratio of LC3-II vs. LC3-I expression (immunoblotting)” value in the assay on KPC cells [2] (IRIN 75-600 µM, 24 h) is given as “dose-dependent increase”.
